Experimental data from patent US20100234339A1, “SILVER(I) COMPOUNDS AND THEIR USE IN PHARMACEUTICAL COMPOSITIONS FOR THE TREATMENT,PROPHYLAXIS AND PREVENTION OF INFECTIONS” (priority 2007, published 2010).

Legend:
P. mirabilis 1 = assay: MIC, broth microdilution (NCCLS); format: cell-based; conditions: Gram negative; resistant clinical isolate from diabetic foot ulcer; MHB 24 h 35° C.
Procedure: (§1) Their antimicrobial activity was established according to the recommendations of NCCLS, (National Committee for Clinical Laboratory Standards 1999, “Performance standards for antimicrobial susceptibility testing. NCCLS approved standard M100-S9” Wayne, Pa.) by the use of a broth microdilution method. Minimum inhibitory concentrations (MICs) for the tested compound were conducted using 12 different pathogens clinically isolated from diabetic foot ulcers and are all resistant strains for at least 10 antibiotics used for diabetic foot ulcer treatment. S. aureus 1, 2 and 3 and S. pyogenes 1, 2 and 3 as […] bacteria and P. mirabilis 1, 2 and 3 and Ps. aeruginosa 1, 2 and 3 as […] bacteria. The test materials were dissolved in DMSO. The highest concentration used was 256 μg/ml. The inoculum was 10^5CFU/ml for bacteria and 10^4CFU/ml for the yeast. Bacteria were cultured in Mueller Hinton Broth (MHB) for 24 h at 35° C. and the yeast in Glucose Peptone Broth (GPB) for 48 h at 30° C. MIC value was corresponding to the lowest concentration that inhibited the bacterial growth.
(§2) For the following seven samples, MICs values were determined and the antimicrobial activity is inversely proportional to this value. Concentrations used in this screening were: 1, 2, 4, 8, 16, 32, 64, 128 and 256 (μg/ml). 1 μg/ml corresponds to a 10^−4% solution and an Ag(I) concentration of about 2·10^−6 mol/dm^3.

P. mirabilis 2 = assay: MIC, broth microdilution (NCCLS); format: cell-based; conditions: Gram negative; resistant clinical isolate from diabetic foot ulcer; MHB 24 h 35° C.
Procedure: as §1, §2

P. mirabilis 3 = assay: MIC, broth microdilution (NCCLS); format: cell-based; conditions: Gram negative; resistant clinical isolate from diabetic foot ulcer; MHB 24 h 35° C.
Procedure: as §1, §2

Ps. aeruginosa 1 = assay: MIC, broth microdilution (NCCLS); format: cell-based; conditions: Gram negative; resistant clinical isolate from diabetic foot ulcer; MHB 24 h 35° C.
Procedure: as §1, §2

S. aureus 1 = assay: MIC, broth microdilution (NCCLS); format: cell-based; conditions: Gram positive; resistant clinical isolate from diabetic foot ulcer; MHB 24 h 35° C.
Procedure: as §1, §2

S. aureus 2 = assay: MIC, broth microdilution (NCCLS); format: cell-based; conditions: Gram positive; resistant clinical isolate from diabetic foot ulcer; MHB 24 h 35° C.
Procedure: as §1, §2

S. aureus 3 = assay: MIC, broth microdilution (NCCLS); format: cell-based; conditions: Gram positive; resistant clinical isolate from diabetic foot ulcer; MHB 24 h 35° C.
Procedure: as §1, §2

S. pyogenes 1 = assay: MIC, broth microdilution (NCCLS); format: cell-based; conditions: Gram positive; resistant clinical isolate from diabetic foot ulcer; MHB 24 h 35° C.
Procedure: as §1, §2

S. pyogenes 2 = assay: MIC, broth microdilution (NCCLS); format: cell-based; conditions: Gram positive; resistant clinical isolate from diabetic foot ulcer; MHB 24 h 35° C.
Procedure: as §1, §2

S. pyogenes 3 = assay: MIC, broth microdilution (NCCLS); format: cell-based; conditions: Gram positive; resistant clinical isolate from diabetic foot ulcer; MHB 24 h 35° C.
Procedure: as §1, §2

Solubility in DMSO = format: physicochemical; conditions: sparingly soluble

Row | Structure (SMILES) | MIC P. mirabilis 1 (P. mirabilis 1) [µg/mL] | MIC P. mirabilis 2 (P. mirabilis 2) [µg/mL] | MIC P. mirabilis 3 (P. mirabilis 3) [µg/mL] | MIC Ps. Aeruginosa 1 (Ps. aeruginosa 1) [µg/mL] | MIC S. aureus 1 (S. aureus 1) [µg/mL] | MIC S. aureus 2 (S. aureus 2) [µg/mL] | MIC S. aureus 3 (S. aureus 3) [µg/mL] | MIC S. pyogenes 1 (S. pyogenes 1) [µg/mL] | MIC S. pyogenes 2 (S. pyogenes 2) [µg/mL] | MIC S. pyogenes 3 (S. pyogenes 3) [µg/mL] | solubility in DMSO (Solubility in DMSO) [mg/mL]
1 | COC(=O)c1ccncc1.O=[N+]([O-])[O-].[Ag+] [Compound 4, [Ag(methylisonicotinate)2]NO3] | 2 | 1 | 2 | 128 | 16 | 32 | 8 | 64 | 128 | 64 | 3 to 5
2 | CCOC(=O)c1cccnc1.O=[N+]([O-])[O-].[Ag+] [Compound 2, [Ag(ethylnicotinate)2]NO3] | 128 | 128 | 256 | 64 | 16 | 4 | 4 | 2 | 4 | 2 | 3 to 5
3 | Nc1ncccc1C(=O)O.Nc1ncccc1C(=O)O.O=[N+]([O-])[O-].O=[N+]([O-])[O-].[Ag+].[Ag+] [Compound 6, [Ag2-μ-O,O′(2-aminonicotinium)2](NO3)2] | 64 | 16 | 32 | 8 | 32 | 32 | 64 | 128 | 256 | 256 | –
4 | CCOC(=O)c1ccncc1.O=[N+]([O-])[O-].[Ag+] [Compound 3, [Ag(ethylisonicotinato)2]NO3] | 8 | 2 | 16 | 32 | 8 | 4 | 16 | 32 | 16 | 16 | 3 to 5
